According to PubChem BioAssay (NCI):
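At the GI50, growth is halved. TGI marks complete inhibition of growth.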

Key:
Experiment in all cases: inhibition of tumour cell growth, NCI panel, 384-well format
[1] = test system: 786-0 renal
[2] = test system: A498 renal
[3] = test system: A549 NSCLC
[4] = test system: ACHN renal
[5] = test system: BT-549 breast
[6] = test system: CAKI-1 renal
[7] = test system: COLO 205 colon
[8] = test system: DU-145 prostate
[9] = test system: EKVX NSCLC
[10] = test system: HCT-116 colon
[11] = test system: HCT-15 colon
[12] = test system: HL-60(TB) leukemia
[13] = test system: HOP-62 NSCLC
[14] = test system: HOP-92 NSCLC
[15] = test system: HS 578T breast
[16] = test system: HT29 colon
[17] = test system: IGROV1 ovarian
[18] = test system: K-562 leukemia
[19] = test system: KM12 colon
[20] = test system: M14 melanoma
[21] = test system: MALME-3M melanoma
[22] = test system: MCF7 breast
[23] = test system: MDA-MB-231 breast
[24] = test system: MDA-MB-435 melanoma
[25] = test system: MDA-MB-468 breast
[26] = test system: MOLT-4 leukemia
[27] = test system: NCI-H226 lung
[28] = test system: NCI-H23 lung
[29] = test system: NCI-H322M lung
[30] = test system: NCI-H460 NSCLC
[31] = test system: NCI-H522 lung
[32] = test system: OVCAR-3 ovarian
[33] = test system: OVCAR-4 ovarian
[34] = test system: OVCAR-5 ovarian
[35] = test system: OVCAR-8 ovarian
[36] = test system: PC-3 prostate
[37] = test system: RXF 393 renal
[38] = test system: SF-268 CNS
[39] = test system: SF-295 CNS
[40] = test system: SF-539 CNS
[41] = test system: SK-MEL-2 melanoma
[42] = test system: SK-MEL-28 melanoma
[43] = test system: SK-MEL-5 melanoma
[44] = test system: SK-OV-3 ovarian
[45] = test system: SN12C renal
[46] = test system: SNB-19 CNS
[47] = test system: SNB-75 CNS
[48] = test system: SR leukemia
[49] = test system: SW-620 colon
[50] = test system: T-47D breast
[51] = test system: TK-10 renal
[52] = test system: U251 glioblastoma
[53] = test system: UACC-257 melanoma
[54] = test system: UACC-62 melanoma
[55] = test system: UO-31 renal

Structure (SMILES): Cn1cc(Nc2nccc(-c3ccc4c(c3)CN(C3COC3)CC[C@H]4NC(=O)c3cn(C(C)(C)C)nn3)n2)cn1
- GI50 [1]: > 100 µM
- TGI [1]: > 100 µM
- GI50 [2]: > 100 µM
- TGI [2]: > 100 µM
- GI50 [3]: 60.9 µM
- TGI [3]: > 100 µM
- GI50 [4]: 41.9 µM
- TGI [4]: > 100 µM
- GI50 [5]: 51.6 µM
- TGI [5]: > 100 µM
- GI50 [6]: 44.7 µM
- TGI [6]: > 100 µM
- GI50 [7]: 37.7 µM
- TGI [7]: > 100 µM
- GI50 [8]: > 100 µM
- TGI [8]: > 100 µM
- GI50 [9]: 28 µM
- TGI [9]: > 100 µM
- GI50 [10]: 44.5 µM
- TGI [10]: > 100 µM
- GI50 [11]: > 100 µM
- TGI [11]: > 100 µM
- GI50 [12]: 35.1 µM
- TGI [12]: > 100 µM
- GI50 [13]: > 100 µM
- TGI [13]: > 100 µM
- GI50 [14]: 52.7 µM
- TGI [14]: > 100 µM
- GI50 [15]: 84.7 µM
- TGI [15]: > 100 µM
- GI50 [16]: 32.1 µM
- TGI [16]: > 100 µM
- GI50 [17]: 18.6 µM
- TGI [17]: 54.4 µM
- GI50 [18]: 11.2 µM
- TGI [18]: 24.6 µM
- GI50 [19]: 56 µM
- TGI [19]: > 100 µM
- GI50 [20]: 36.5 µM
- TGI [20]: > 100 µM
- GI50 [21]: 45.5 µM
- TGI [21]: > 100 µM
- GI50 [22]: 20.8 µM
- TGI [22]: > 100 µM
- GI50 [23]: 78.1 µM
- TGI [23]: > 100 µM
- GI50 [24]: 43.2 µM
- TGI [24]: > 100 µM
- GI50 [25]: 23.7 µM
- TGI [25]: > 100 µM
- GI50 [26]: 15.3 µM
- TGI [26]: 29.4 µM
- GI50 [27]: 33 µM
- TGI [27]: > 100 µM
- GI50 [28]: 30.2 µM
- TGI [28]: > 100 µM
- GI50 [29]: 68 µM
- TGI [29]: > 100 µM
- GI50 [30]: 44.2 µM
- TGI [30]: > 100 µM
- GI50 [31]: 22.1 µM
- TGI [31]: 74 µM
- GI50 [32]: 60.9 µM
- TGI [32]: > 100 µM
- GI50 [33]: 54.4 µM
- TGI [33]: > 100 µM
- GI50 [34]: 61.5 µM
- TGI [34]: > 100 µM
- GI50 [35]: > 100 µM
- TGI [35]: > 100 µM
- GI50 [36]: > 100 µM
- TGI [36]: > 100 µM
- GI50 [37]: 11.4 µM
- TGI [37]: 54.1 µM
- GI50 [38]: > 100 µM
- TGI [38]: > 100 µM
- GI50 [39]: > 100 µM
- TGI [39]: > 100 µM
- GI50 [40]: 49.2 µM
- TGI [40]: > 100 µM
- GI50 [41]: 66.3 µM
- TGI [41]: > 100 µM
- GI50 [42]: 37.1 µM
- TGI [42]: > 100 µM
- GI50 [43]: 27.3 µM
- TGI [43]: > 100 µM
- GI50 [44]: 29.5 µM
- TGI [44]: > 100 µM
- GI50 [45]: 46.7 µM
- TGI [45]: > 100 µM
- GI50 [46]: > 100 µM
- TGI [46]: > 100 µM
- GI50 [47]: 45.8 µM
- TGI [47]: > 100 µM
- GI50 [48]: 12.9 µM
- TGI [48]: 27.1 µM
- GI50 [49]: 48.5 µM
- TGI [49]: > 100 µM
- GI50 [50]: 30.9 µM
- TGI [50]: > 100 µM
- GI50 [51]: 70.8 µM
- TGI [51]: > 100 µM
- GI50 [52]: > 100 µM
- TGI [52]: > 100 µM
- GI50 [53]: 43.4 µM
- TGI [53]: > 100 µM
- GI50 [54]: 27.3 µM
- TGI [54]: > 100 µM
- GI50 [55]: 48 µM
- TGI [55]: > 100 µM
